Source: the RepoRT retention time repository
Where a name gives a salt, the structure may show the parent alone.

Assay: HILIC, Merck SeQuant ZIC-HILIC, 25 °C, 0.25 mL/min; A: water + 16 mM ammonium formate; B: acetonitrile + 0.1% formic acid, pH 3; gradient (min/%B) 0/97 2/97 10/70 15/10 17/10 18/97 25/97
Settings: stereoisomer not certain

Structure (SMILES) | LC retention time
CNCC(=O)O [SARCOSINE] | 13.6 min
NC(CCS)C(=O)O (stereo not given) [HOMOCYSTEINE] | 12.4 min
NCC(N)C(=O)O (stereo not given) [2-3-DIAMINOPROPIONATE] | 16.1 min
C[C@H](O)CC(=O)O [(S)-3-Hydroxybutyric acid] | 2.16 min
CC1NCCc2cc(O)c(O)cc21 (stereo not given) [SALSOLINOL] | 11.1 min
CC(C)=CCNc1ncnc2nc[nH]c12 [N6-(DELTA2-ISOPENTENYL)-ADENINE] | 2.13 min
O=C[C@H](O)[C@H](O)CO [D-(-)-Erythrose] | 8.22 min
CCCCCCCCCCCCCC(=O)OCC(O)COP(=O)([O-])OCC[N+](C)(C)C (stereo not given) [14-0_LysoPC] | 11.3 min
O=C(OC1Cc2c(O)cc(O)cc2OC1c1cc(O)c(O)c(O)c1)c1cc(O)c(O)c(O)c1 (single isomer, unassigned; (-)) [(-)-Epigallocatechin gallate] | 12.4 min
CCC(NC(=O)CCC(N)C(=O)O)C(=O)NCC(=O)O (stereo not given) [OPHTHALMATE] | 14.1 min
NC(CO)Cc1cnc[nH]1 (stereo not given) [HISTIDINOL] | 17 min
Nc1ncnc2c1ncn2C1OC(COP(=O)(O)O)C(O)C1O (stereo not given) [ADENOSINE-MONOPHOSPHATE] | 13.6 min
O=P(O)(O)OCC1OC(OP(=O)(O)OP(=O)(O)O)C(O)C1O (stereo not given) [PHOSPHORIBOSYL PYROPHOSPHATE] | 15.7 min
Cc1cccnc1 [3-Methylpyridine (3-Picoline)] | 2.16 min
O=C(O)CO [GLYCOLATE] | 4 min
O=CC(O)CO (stereo not given) [GLYCERALDEHYDE] | 2.77 min
CC(=O)OCC[N+](C)(C)C [ACETYLCHOLINE+C2H2O4] | 10 min
COC(=O)C(=O)OC [Dimethyl oxalate] | 2.24 min
Nc1ncnc2c1ncn2C1OC(COP(=O)(O)OP(=O)(O)OC2OC(CO)C(O)C(O)C2O)C(O)C1O (stereo not given) [ADP-GLUCOSE] | 14.7 min

Structure (SMILES) | LC retention time
CC(CCCC(C)(C)O)C1CCC2C3CC=C4CC(O)CCC4(C)C3CCC12C (stereo not given) [25-HYDROXYCHOLESTEROL] | 1.6 min
OCCNCCO [DIETHANOLAMINE] | 13.1 min
CN=C(N)N [METHYLGUANIDINE] | 12 min
CCCCC(CC)COC(=O)c1ccccc1C(=O)OCC(CC)CCCC (stereo not given) [BIS(2-ETHYLHEXYL)PHTHALATE] | 1.48 min
NCCC(=O)O [BETA-ALANINE] | 14.1 min
COC(=O)CCCN [METHYL 4-AMINOBUTYRATE-CH2] | 13.4 min
CC(C)C(=O)O [ISOBUTYRATE] | 2.11 min
Nc1ncnc2c1ncn2C1OC(COP(=O)(O)OP(=O)(O)OP(=O)(O)O)C(O)C1O (stereo not given) [ADENOSINE TRIPHOSPHATE] | 15.5 min
O=C(O)C=CC(=O)O [fumaric acid] | 7.45 min
O=C(O)CCc1ccccc1 [hydrocinnamic acid] | 1.69 min
NCCCC(=O)O [GAMMA-AMINOBUTYRATE] | 13.5 min
O=C(O)C(O)C(O)C(=O)O (stereo not given) [TARTRATE D] | 14.2 min
NC(N)=NCC(=O)O [GUANIDINOACETATE] | 14 min
O=C1OC(CO)C(O)C(O)C1O (stereo not given) [GLUCONOLACTONE] | 14.5 min
CC1OC(OCC2OC(Oc3c(-c4ccc(O)c(O)c4)oc4cc(O)cc(O)c4c3=O)C(O)C(O)C2O)C(O)C(O)C1O (stereo not given) [rutin hydrate] | 10.6 min
C=C(C)C1CCC2(C(=O)O)CCC3(C)C(CCC4C5(C)CCC(O)C(C)(C)C5CCC43C)C12 (stereo not given) [Betulinic acid] | 1.58 min
NC(CSCC(=O)O)C(=O)O (stereo not given) [S-CARBOXYMETHYLCYSTEINE] | 14.4 min
O=C(O)CC(O)(CC(=O)O)C(=O)O [CITRATE] | 13 min
CCCCCCCCCCCCCCCCCC(=O)OCC(O)COP(=O)([O-])OCC[N+](C)(C)C (stereo not given) [18-0_LysoPC] | 11.2 min

Structure (SMILES) | LC retention time
Nc1ncnc2c1ncn2C1OC(COP(=O)(O)OP(=O)(O)O)C(O)C1O (stereo not given) [ADENOSINE 5'-DIPHOSPHATE] | 14.7 min
NCCc1ccc(O)cc1 [TYRAMINE] | 11.3 min
O=C(O)CP(=O)(O)O [PHOSPHONOACETATE] | 14.3 min
O=C(O)c1ccc(=O)[nH]c1 [6-HYDROXYNICOTINATE] | 6.01 min
Nc1ncnc2c1ncn2C1OC(CO)C2OP(=O)(O)OC21 (stereo not given) [ADENOSINE 2'-3'-CYCLIC PHOSPHATE] | 11.4 min
NCCCC[C@H](N)C(=O)O [L-Lysine] | 16.1 min
OCC1OC(OCC2OC(O)(CO)C(O)C2O)C(O)C(O)C1O (stereo not given) [PALATINOSE] | 13.6 min
NCC[Se][Se]CCN [SELENOCYSTAMINE] | 16.9 min
O=C(O)C(O)C(O)C(O)C(O)COP(=O)(O)O (stereo not given) [6-PHOSPHOGLUCONATE] | 15.1 min
CCCCCCCCCCCCCCCCCCCCCCC(=O)[O-] [TRICOSANOATE] | 1.53 min
CCCCCCCCCCCCCCCC(=O)OCC(COP(=O)(O)OCCN)OC(=O)CCCCCCCCCCCCCCC (stereo not given) [DIPALMITOYL-PHOSPHOETHANOLAMINE] | 9.35 min
Cn1cnc2c(ncn2C2OC(CO)C(O)C2O)c1=N (stereo not given) [1-METHYLADENOSINE] | 12.8 min
N[C@@H](CO)C(=O)O [L-Serine] | 14.2 min
CCCCCCCCCCCCCC(=O)OCC(O)CO (stereo not given) [GLYCEROL-MYRISTATE] | 1.64 min
CCCCCCCCCCCCCCCC(=O)OCC(CO)OC(=O)CCCCCCCCCCCCCCC (stereo not given) [DIPALMITOYLGLYCEROL] | 1.5 min
CCOC(=O)CCNC(N)=O [ETHYL 3-UREIDOPROPIONATE] | 2.14 min
O=C(O)CCCC(=O)O [GLUTARATE] | 2.13 min
CN1C2CC(OC(=O)C(CO)c3ccccc3)CC1C1OC12 (single isomer, unassigned; (-)) [(-)-Scopolamine hydrochloride] | 9.99 min
CCCCCCCCCC(=O)OCC(COP(=O)([O-])OCC[N+](C)(C)C)OC(=O)CCCCCCCCC (stereo not given) [DIDECANOYL-GLYCEROPHOSPHOCHOLINE] | 10.6 min

Continued, values first:

LC retention time | Structure (SMILES)
2.13 min | O=C1CCNC(=O)N1 [DIHYDROURACIL]
2.24 min | O=c1cc[nH]c(=O)[nH]1 [URACIL]
2.15 min | O=C(O)Cc1cccc(O)c1 [3-HYDROXYPHENYLACETATE]
1.84 min | Cc1ccc(O)c(O)c1 [4-METHYLCATECHOL]
4.31 min | O=C(O)c1ccc(CO)o1 [5-hydroxymethyl-2-furancarboxylic acid]
10.5 min | O=C1OC(C(O)CO)C(O)=C1O (stereo not given) [ASCORBATE]
9.77 min | Cn1cnc2nc(N)[nH]c(=O)c21 [7-methylguanine]
12.8 min | O=S(=O)(O)c1ccc(O)c(O)c1 [3-4-dihydroxybenzenesulfonic acid]
8.23 min | Cc1ncc(CO)c(C=O)c1O [PYRIDOXAL]
2 min | Oc1ccc2[nH]ccc2c1 [5-Hydroxyindole]
5.96 min | Nc1ccc(C(=O)NCC(=O)O)cc1 [Aminohippuric acid]
2.15 min | CC(=O)NC(Cc1c[nH]c2ccccc12)C(=O)O (stereo not given) [N-ACETYLTRYPTOPHAN]
8.79 min | OCC(O)c1ccc(O)c(O)c1 (stereo not given) [3-4-DIHYDROXYPHENYLGLYCOL]
11.7 min | CN1CC(=O)NC1=N [CREATININE]
10.9 min | O=C([O-])c1cc(=O)[nH]c(=O)[nH]1 [OROTATE]
2.14 min | Cc1c[nH]c(=O)[nH]c1=O [THYMINE]
2.21 min | Cn1cc(C(N)=O)ccc1=O [N-methyl-2-pyridone-5-carboxamide]
2.15 min | O=C(O)c1cccc(O)c1 [3-HYDROXYBENZOATE]
1.77 min | O=C(O)c1ccc2ccccc2c1[O-] [1-HYDROXY-2-NAPHTHOATE]

LC retention time | Structure (SMILES)
10 min | O=CCc1c[nH]c2ccccc12 [INDOLEACETALDEHYDE]
10.3 min | O=c1[nH]cnc2c1ncn2C1OC(CO)C(O)C1O (stereo not given) [INOSINE]
2.08 min | COc1cc(C(=O)O)ccc1O [Vanillic acid]
13.4 min | O=c1ccn(C2CC(O)C(COP(=O)(O)O)O2)c(=O)[nH]1 (stereo not given) [DEOXYURIDINE-MONOPHOSPHATE]
10.3 min | O=C(O)C(O)c1ccc(O)c(O)c1 (stereo not given) [3-4 DIHYDROXYMANDELATE]
6.35 min | O=C(O)CC(=O)O [MALONATE]
8.25 min | O=c1[nH]cc(CO)c(=O)[nH]1 [5-HYDROXYMETHYLURACIL]
2.07 min | O=C(O)c1c(O)cccc1O [2-6-Dihydroxybenzoic acid]
14 min | O=C(CO)COP(=O)(O)O [DIHYDROXYACETONE PHOSPHATE]
2.16 min | O=c1ccc2cc(O)ccc2[nH]1 [2-6-quinolinediol]
14.4 min | Cc1cn(C2CC(O)C(COP(=O)(O)OP(=O)(O)OC3OC(CO)C(O)C(O)C3O)O2)c(=O)[nH]c1=O [DTDP-D-GLUCOSE]
2.22 min | Cc1ncc(CO)c(C(=O)O)c1O [4-PYRIDOXATE]
2.13 min | CC1NC(=O)NC1CCCCCC(=O)O (stereo not given) [DETHIOBIOTIN]
2.11 min | CC(C)(CC(=O)O)CC(=O)O [3-3-Dimethylglutaric acid]
2.16 min | O=c1c(O)c(-c2ccc(O)c(O)c2)oc2cc(O)cc(O)c12 [quercetine dihydrate]
15.7 min | C[N+](C)(C)CCOP(=O)(O)OP(=O)([O-])OCC1OC(n2ccc(N)nc2=O)C(O)C1O (stereo not given) [CITICOLINE]
15.4 min | Nc1nc2c(ncn2C2OC(COP(=O)(O)OP(=O)(O)O)C(O)C2O)c(=O)[nH]1 (stereo not given) [GUANOSINE DIPHOSPHATE]
13.3 min | N[C@H](C(=O)O)c1ccc(O)cc1 [4-HYDROXY-L-PHENYLGLYCINE]
11.8 min | Cc1ncc(COP(=O)(O)O)c(C=O)c1O [PYRIDOXAL-PHOSPHATE]
